In patent US10858366B2 (priority 2016, dated 2020):

Columns and labels:
[1] = molecular target: truncated Influenza A/victoria/75 PA(1-209) (Influenza A virus (strain A/Victoria/3/1975 H3N2), UniProt P31343); assay: Endonuclease Inhibition Assay (PA FP Assay); assay type: binding; settings: fluorescence polarization, fluorescein-labeled probe
Procedure: Endonuclease Inhibition Assay (PA FP Assay)
Compounds were dissolved and serially diluted in 100% DMSO then 0.5 μl was transferred to 384-well plates. 50 nM truncated Influenza A/victoria/75 PA(1-209) was prepared in assay buffer (20 mM Tris, pH=7.5, 10 mM MgCl2, 0.01% Tween 20, 100 mM NaCl and 1 mM DTT) and 20 ul was added to each well of assay plate with compounds, centrifuged for 1 min at 1000 rpm and incubated for 30 min at room temperature. 20 μl of 20 nM fluorescein-labeled probe [5-(4-(3-carboxy-3-oxopropanoyl)-4-(4-chlorobenzyl)piperidine-1-carbonyl)-2-(6-hydroxy-3-oxo-3H-xanthen-9-yl)benzoic acid] in assay buffer was then added, centrifuged for 1 min at 1000 rpm and incubated for 60 min at room temperature.
Fluorescence polarization was measured on Perkin Elmer Envision plate reader with excitation at 480 nm and emission at 535 nm and reported in millipolarization units (mP). IC50 values were determined relative to wells containing 125 uM of a compound known to bind to the active site of PA and uninhibited wells containing 1.25% DMSO.

[2] = molecular target: RNP_CAL (PB2, PB1, PA, NP, influenza A Luciferase reporter in 293T cells) (Influenza A virus (strain swl A/California/04/2009 H1N1), UniProt C3W5S0); assay: cell-based

Row | SMILES | IC50 [1] | EC50 [2]
1 | O=c1cnn2c(c1O)-c1nccn1CC2C(c1ccccc1)c1ccccc1 (centres unmarked) [Example 1, 6-Benzhydryl-11-hydroxy-5H-imidazo[2′,1′:3,4]pyrazino[1,2-b]pyridazin-10(6H)-one] | 0.05 µM | 0.11 µM
2 | O=c1cnn2c(c1O)-c1nccn1CC2C(c1cccc(F)c1)c1cccc(F)c1 (centres unmarked) [Example 2, 6-(bis(3-fluorophenyl)methyl)-11-hydroxy-5,6-dihydro-10H-imidazo[2′,1′:3,4]pyrazino[1,2-b]pyridazin-10-one] | 0.07 µM | 0.11 µM
3 | O=c1cnn2c(c1O)-c1ncnn1CC2C(c1ccccc1)c1ccccc1 (centres unmarked) [Example 3, 6-benzhydryl-11-hydroxy-5,6-dihydro-10H-[1,2,4]triazolo[5′,1′:3,4]pyrazino[1,2-b]pyridazin-10-one] | 0.4 µM | 1.1 µM
4 | O=c1ccn2c(c1O)-c1nccn1C[C@@H]2C(c1ccccc1)c1ccccc1 [Example 4, (S)-6-Benzhydryl-11-hydroxy-5H-imidazo[1,2-a]pyrido[2,1-c]pyrazin-10(6H)-one] | 0.01 µM | 0.16 µM
5 | O=c1ccn2c(c1O)-c1ncc(Cl)n1C[C@@H]2C(c1ccccc1)c1ccccc1 [Example 5, (S)-6-Benzhydryl-3-chloro-11-hydroxy-5,6-dihydro-10H-imidazo[1,2-a]pyrido[2,1-c]pyrazin-10-one] | 0.02 µM | 0.1 µM
6 | O=c1ccn2c(c1O)-c1nccn1CN2C(c1ccccc1)c1ccccc1 [Example 6, 6-benzhydryl-11-hydroxy-5H-imidazo[1,2-d]pyrido[2,1-f][1,2,4]triazin-10(6H)-one] | 0.04 µM | 0.19 µM
7 | O=c1ccn2c(c1O)-c1ncc(Br)n1C[C@@H]2C(c1ccccc1)c1ccccc1 [Example 7, (S)-6-benzhydryl-3-bromo-11-hydroxy-5H-imidazo[1,2-a]pyrido[2,1-c]pyrazin-10(6H)-one] | 0.009 µM | 0.17 µM
8 | O=c1ccn2c(c1O)-c1ncc(C3CC3)n1C[C@@H]2C(c1ccccc1)c1ccccc1 [Example 8, (S)-6-benzhydryl-3-cyclopropyl-11-hydroxy-5H-imidazo[1,2-a]pyrido[2,1-c]pyrazin-10(6H)-one] | 0.04 µM | 0.15 µM
9 | Cc1nc2n(c1C)C[C@H](C(c1ccccc1)c1ccccc1)n1ccc(=O)c(O)c1-2 [Example 14, (S)-6-benzhydryl-11-hydroxy-2,3-dimethyl-5H-imidazo[1,2-a]pyrido[2,1-c]pyrazin-10(6H)-one] | 0.1 µM | 4.2 µM
10 | O=c1cnn2c(c1O)-c1nccn1C[C@@H]2[C@H](c1ccccc1)c1ccc(F)cc1 [Example 17, (S)-6-((R)-(4-fluorophenyl)(phenyl)methyl)-11-hydroxy-5,6-dihydro-10H-imidazo[2′,1′:3,4]pyrazino[1,2-b]pyridazin-10-one] | 0.02 µM | 0.01 µM
11 | O=c1cnn2c(c1O)-c1nccn1C[C@@H]2[C@@H](c1ccccc1)c1ccc(F)cc1 [Example 18, (S)-6-((S)-(4-fluorophenyl)(phenyl)methyl)-11-hydroxy-5,6-dihydro-10H-imidazo[2′,1′:3,4]pyrazino[1,2-b]pyridazin-10-one] | 0.02 µM | 0.13 µM
12 | O=c1cnn2c(c1O)-c1nccn1C[C@@H]2[C@H](c1ccc(F)cc1)c1cncc(F)c1 [Example 19, (S)-6-((R)-(4-fluorophenyl)(5-fluoropyridin-3-yl)methyl)-11-hydroxy-5,6-dihydro-10H-imidazo[2′,1′:3,4]pyrazino[1,2-b]pyridazin-10-one] | 0.04 µM | 0.26 µM
13 | O=c1cnn2c(c1O)-c1nccn1C[C@@H]2[C@H](c1ccc(F)cc1)c1ccc(C(F)(F)F)nc1 [Example 20, (S)-6-((R)-(4-fluorophenyl)(6-(trifluoromethyl)pyridin-3-yl)methyl)-11-hydroxy-5,6-dihydro-10H-imidazo[2′,1′:3,4]pyrazino[1,2-b]pyridazin-10-one] | 0.3 µM | 0.72 µM
14 | O=c1cnn2c(c1O)-c1nccn1C[C@@H]2C(c1cccc(F)c1)c1cccc(F)c1 [Example 23, (S)-6-(bis(3-fluorophenyl)methyl)-11-hydroxy-5,6-dihydro-10H-imidazo[2′,1′:3,4]pyrazino[1,2-b]pyridazin-10-one] | 0.05 µM | 0.039 µM
15 | O=c1cnn2c(c1O)-c1nccn1C[C@@H]2[C@@H](c1ccc(F)cc1)c1cccc(F)c1 [Example 24, (S)-6-((S)-(3-fluorophenyl)(4-fluorophenyl)methyl)-11-hydroxy-5,6-dihydro-10H-imidazo[2′,1′:3,4]pyrazino[1,2-b]pyridazin-10-one] | 0.009 µM | 0.036 µM
16 | O=c1cnn2c(c1O)-c1nccn1C[C@@H]2[C@@H](c1ccc(F)cc1)c1cccc(Br)c1 [Example 30, (S)-6-((S)-(3-bromophenyl)(4-fluorophenyl)methyl)-11-hydroxy-5,6-dihydro-10H-imidazo[2′,1′:3,4]pyrazino[1,2-b]pyridazin-10-one] | 0.01 µM | 
17 | O=c1cnn2c(c1O)-c1nccn1C[C@@H]2[C@@H](c1ccc(F)cc1)c1ccc(Cl)cc1 [Example 33, (S)-6-((S)-(4-chlorophenyl)(4-fluorophenyl)methyl)-11-hydroxy-5,6-dihydro-10H-imidazo[2′,1′:3,4]pyrazino[1,2-b]pyridazin-10-one] | 0.02 µM | 0.11 µM
18 | Cc1cccc([C@H](c2ccc(F)cc2)[C@H]2Cn3ccnc3-c3c(O)c(=O)cnn32)c1 [Example 38, (S)-6-((S)-(4-fluorophenyl)(m-tolyl)methyl)-11-hydroxy-5,6-dihydro-10H-imidazo[2′,1′:3,4]pyrazino[1,2-b]pyridazin-10-one] | 0.04 µM | 0.049 µM
19 | O=c1cnn2c(c1O)-c1nccn1C[C@@H]2[C@H](c1ccc(F)cc1)c1ccc(F)cc1Br [Example 39, (S)-6-((R)-(2-bromo-4-fluorophenyl)(4-fluorophenyl)methyl)-11-hydroxy-5,6-dihydro-10H-imidazo[2′,1′:3,4]pyrazino[1,2-b]pyridazin-10-one] | 0.01 µM | 0.033 µM
20 | Cc1ccccc1[C@H](c1ccc(F)cc1)[C@H]1Cn2ccnc2-c2c(O)c(=O)cnn21 [Example 40, (S)-6-((S)-(4-fluorophenyl)(o-tolyl)methyl)-11-hydroxy-5,6-dihydro-10H-imidazo[2′,1′:3,4]pyrazino[1,2-b]pyridazin-10-one] | 0.02 µM | 0.032 µM
21 | N#Cc1cccc([C@H](c2ccc(F)cc2)[C@H]2Cn3ccnc3-c3c(O)c(=O)cnn32)c1 [Example 43, 3-((S)-(4-fluorophenyl)((S)-11-hydroxy-10-oxo-5,6-dihydro-10H-imidazo[2′,1′:3,4]pyrazino[1,2-b]pyridazin-6-yl)methyl)benzonitrile] | 0.02 µM | 0.039 µM
22 | N#Cc1cccc([C@H](c2cccc(F)c2)[C@H]2Cn3ccnc3-c3c(O)c(=O)cnn32)c1 [Example 46, 3-((R)-(3-fluorophenyl)((S)-11-hydroxy-10-oxo-5,6-dihydro-10H-imidazo[2′,1′:3,4]pyrazino[1,2-b]pyridazin-6-yl)methyl)benzonitrile] | 0.05 µM | 0.064 µM
23 | O=c1ccn2c(c1O)-c1ncc(CO)n1C[C@@H]2C(c1ccccc1)c1ccccc1 [Example 54, (S)-6-benzhydryl-11-hydroxy-3-(hydroxymethyl)-5,6-dihydro-10H-imidazo [1,2-a]pyrido[2,1-c]pyrazin-10-one] | 0.1 µM | 
